Several values for one entry are separate records, joined by “and”; a condition that tells them apart may be missing. Identical values can stand only once.
Assays:
P2Y12 receptor [1] = molecular target: T1, P2Y12 receptor (Homo sapiens, UniProt Q9H244); assay: Inhibition of [33P]2MeS-ADP binding to washed human platelet membranes (Assay 1); parameters: the P2Y12 receptor, which is found on the surface of platelets; tissue Interstate Blood bank, Memphis, Tenn; host or cells: human platelets from platelet rich plasma; settings: for inhibition at 10 µM: highest concentration tested 10 μM; for IC50 / Ki: washed human platelet membranes
T1 sequence (Q9H244 whole entry): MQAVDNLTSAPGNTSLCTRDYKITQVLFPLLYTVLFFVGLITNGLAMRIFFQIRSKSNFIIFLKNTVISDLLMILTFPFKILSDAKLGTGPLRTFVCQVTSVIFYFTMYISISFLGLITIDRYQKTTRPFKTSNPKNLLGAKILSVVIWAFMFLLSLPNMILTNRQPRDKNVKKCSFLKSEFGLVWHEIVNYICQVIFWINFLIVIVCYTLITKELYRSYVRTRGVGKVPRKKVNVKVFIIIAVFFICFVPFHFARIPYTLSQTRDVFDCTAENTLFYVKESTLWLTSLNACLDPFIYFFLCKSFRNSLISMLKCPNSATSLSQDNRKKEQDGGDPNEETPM
Description: 1. Inhibition of [^33P]2MeS-ADP Binding to Washed Human Platelet Membranes. The ability of a test compound to bind to the P2Y12 receptor was evaluated in a platelet membrane binding assay. In this competitive binding assay, the test compound competed against a radiolabelled agonist for binding to the P2Y12 receptor, which is found on the surface of platelets. Inhibition of binding of the labeled material was measured and correlated to the amount and potency of the test compound. Data from this assay are presented in Table F. Platelet rich plasma (“PRP”) was obtained from the Interstate Blood bank, Memphis, Tenn. Platelet rich plasma was prepared from blood units collected in ACD ((prepared by (1) combining: 2.5 g sodium citrate (Sigma S-4641); 1.5 g citric acid (Sigma C-0706); and, 2.0 g dextrose (Sigma G-7528); (2) bringing pH to 4.5; and (3) adding water to bring volume to 100 mL) and using the light spin protocol; this protocol involves centrifugation at room temperature for approximately 20 minutes at speeds up to 160×g. Platelet rich plasma is supplied in units of approximately 200 ml. Each unit is distributed into four 50 mL polypropylene conical tubes for centrifugation, Blood from each donor is maintained separately.
The 50 mL tubes were centrifuged for 15 minutes at 1100 rpm in Sorvall RT6000D (with H1000B rotor). Internal centrifuge temperature was maintained at approximately room temperature (22-24° C.). This spin pelleted cellular components remaining from the PRP preparation. The supernatant was decanted into fresh 50 mL tubes. To avoid carry over of cellular components following the room temperature centrifugation, approximately 5 mL of PRP was left in the tube and discarded. The tubes were capped and inverted 2-3 times and allowed to stand at room temperature for at least 15 minutes following inversion.
Optionally, a Coulter Counter may be used to count platelets from the resting samples during the resting phase. Normal human platelet counts are expected to range from 200,000 to 400,000 per μL of PRP supernatant.
The 50 mL tubes containing PRP supernatant were centrifuged for 15 minutes at 2300-2400 rpm to loosely pellet the platelets. The supernatant from this spin was decanted immediately into a clean cell culture bottle (Corning bottle) and saved in case further centrifugation was needed. The pellet of each tube was resuspended in 2-4 mL of Wash buffer (pH 6.5) (1 L prepared new daily—134 mM NaCl (Sigma S-5150); 3 mM KCl (Sigma P-9333); 1 mM CaCl2 (JT Baker 1311-01); 2 mM MgCl2 (Sigma M-2670); 5 mM glucose (EM 4074-2); 0.3 mM NaH2PO4 (Sigma S-9638)/12 mM NaHCO3 (J T Baker 3506-01); 5 mM HEPES pH 7.4 (Gibco 12379-012); 0.35% BSA (Sigma A-7906); 330 mg Heparin (bovine lung, Sigma H-4898); and 30 mL of ACD) by repeated gentle aspiration using disposable polypropylene sample pipettes.
Wash buffer (pH 6.5) was added to each tube to bring the volume to approximately 40 mL. Each tube was incubated for at least 15 minutes at 37° C.
The tubes were then centrifuged again for 15 minutes at 2300-2400 rpm to loosely pellet the platelets. The supernatant was decanted and discarded. The pellet was resuspended in 2-4 mL of Assay buffer (pH 7.4) (1 L volume—134 mM NaCl; 3 mM KCl; 1 mM CaCl2; 2 mM MgCl2; 5 mM glucose; 0.3 mM NaH2PO4/12 mM NaHCO3; 5 mM HEPES pH 7.4; and 0.35% BSA) by repeated aspiration using disposable polypropylene sample pipettes.
The pooled platelet preparation was counted using a Coulter Counter. The final concentration of platelets was brought to 1×10^6 per μL using Assay buffer pH 7.4. The platelets were rested for a minimum of 45 minutes at 37° C. before use in the assay.
In one embodiment, the compounds were tested in 96-well microtiter filterplates (Millipore Multiscreen-FB opaque plates, #MAFBNOB50). These plates were used in the assay and pre-wet with 50 μL of Assay buffer pH 7.4 then filtered through completely with a Millipore plate vacuum. […]

P2Y12 receptor [2] = molecular target: T1, P2Y12 receptor; assay: Human P2Y12 recombinant cell membrane binding assay with 33P 2MeS-ADP (Assay 3); parameters: expressed in transfected cells; host or cells: HEK cells; settings: for IC50 / Ki: HEK cell membranes expressing P2Y12, multiple lines = multiple runs; for inhibition at 10 µM / [33P]-2MeS-ADP Binding to Recombinant Human P2Y12 Membranes (Assay 3) % Inhibition: highest concentration tested 10 μM; for inhibition at 10 µM: read-out: [33P]-2MeS-ADP Binding to Recombinant Human P2Y12 Membranes (Assay 3) % Inhibition
Description: 3. Human P2Y12 Recombinant Cell Membrane Binding Assay with ^33P 2MeS-ADP.
The ability of a test compound to bind to the P2Y12 receptor was evaluated in a recombinant cell membrane binding assay. In this competitive binding assay, the test compound competed against a radiolabelled agonist for binding to the P2Y12 receptor, expressed on the cell membrane. Inhibition of binding of the labeled material was measured and correlated to the amount and potency of the test compound. Data from this assay are presented in Table F. This binding assay is a modification of the procedure in Takasaki, J. et. al, Mol. Pharmacol., 2001, Vol. 60, pg. 432.
HEK cells were transfected with the pDONR201P2Y12 vector and cultured in MEM with GlutaMAX I, Earle's salts, 25 mM HEPES (Gibco # 42360-032) containing 10% dialyzed FBS (Gibco # 26400-044), 100 μM nonessential amino acids (Gibco # 11140-050), 1 mM sodium pyruvate (Gibco # 11360-070), 0.05% geneticin (Gibco #10131-027), 3 μg/mL blasticidin (Fluka brand from Sigma # 15205), and 0.5 μg/mL puromycin (Sigma # P-8833).
Confluent cells were washed once with cold DPBS (Gibco # 14190-136). Fresh DPBS was added and the cells were scraped and centrifuged at 500×g for 5 minutes at 4° C. The cell pellets were resuspended in TEE buffer (25 mM Tris, 5 mM EDTA, 5 mM EGTA) containing 1 protease inhibitor cocktail tablet (Roche # 1 873 580) per 50 mL (called TEE+Complete) and can be flash frozen at this point.
In one embodiment, frozen cell pellets were used to prepare the membranes. In that embodiment, the frozen cell pellets were thawed on ice. In another embodiment, cell pellets may be used without flash freezing before moving on to the next step.
Cell pellets were resuspended in TEE buffer+Complete and homogenized in a glass dounce for 12 strokes. The cell suspension was centrifuged at 500×g for 5 minutes at 4° C. The supernatant was saved and centrifuged at 20,000×g for 20 minutes at 4° C. This supernatant was discarded and the cell pellet resuspended in TEE buffer+Complete and homogenized in a glass dounce for 12 strokes. This suspension was centrifuged at 20,000×g for 20 minutes at 4° C. and the supernatant discarded. The pellet was resuspended in assay buffer (50 mM Tris, 100 mM NaCl, 1 mM EDTA) containing one protease inhibitor cocktail tablet per 50 mL, and can be flash frozen as 1 mL aliquots at this point.
Dry compounds were diluted as 10 mM DMSO stocks and tested in a seven-point, three-fold dilution series run in triplicate beginning at 10 μM, final concentration. A 1 mM DMSO intermediate stock was made in a dilution plate and from this the seven dilutions were made to 5× the final concentration in assay buffer containing 0.02% BSA.
To a polypropylene assay plate (Costar # 3365) the following were added: a) 30 μL of assay buffer containing one protease inhibitor cocktail tablet per 50 mL; b) 30 μL of 1 nM ^33P 2MeS-ADP made in assay buffer containing 0.02% BSA and 12.5 mg/mL ascorbic acid; 30 μL of cold 1.5 μM 2MeS-ADP for the positive control wells, or assay buffer containing 0.02% BSA and 12.5 mg/mL ascorbic acid for the negative control wells, or 5× drug dilution; and 60 μL of 1 ug/well membranes.
The plates were incubated at room temperature for 1 hour. The reaction was stopped using a cell harvester to transfer the reaction mixture onto GF/B UniFilter plates (Perkin Elmer # 6005177), and washed three times with wash buffer (50 mM Tris), filtering between each wash. The filter plates were dried for approximately 20 minutes in an oven at 50° C. Back seals were adhered to the filter plates and 25 uL of Microscint 20 scintillation fluid (Perkin Elmer # 6013621) were added. The filter plates were sealed, shaken for 30 minutes, and counted on a Top Count. Data were analyzed using a four-parameter curve fit with a fixed minimum and maximum experimentally defined as the average positive and negative controls on each plate, and with a hill slope equal to one.

SMILES: CCc1cc2c(N3CCN(C(=O)Cc4ccccc4)CC3)nc(NCCCc3ccccc3)nc2s1 [Example 7, 6-Ethyl-4-[4-(phenylacetyl)piperazin-1-yl]-N-(3-phenylpropyl)thieno[2,3-d]pyrimidin-2-amine]
- inhibition at 10 µM (P2Y12 receptor [1]): 37.4%
- IC50 (P2Y12 receptor [1]): > 10000 nM

SMILES: CCc1cc2c(N3CCN(C(=O)Cc4ccccc4)CC3)nc(NCc3ccco3)nc2s1 [Example 8, 6-Ethyl-N-(2-furylmethyl)-4-[4-(phenylacetyl)piperazin-1-yl]thieno[2,3-d]pyrimidin-2-amine]
- inhibition at 10 µM (P2Y12 receptor [1]): 42.2%
- IC50 (P2Y12 receptor [1]): 9850 nM
- Ki (P2Y12 receptor [1]): 9320 nM

SMILES: CCc1cc2c(N3CCN(C(=O)Cc4ccccc4)CC3)nc(NCCCO)nc2s1 [Example 9, 3-({6-Ethyl-4-[4-(phenylacetyl)piperazin-1-yl]thieno[2,3-d]pyrimidin-2-yl}amino)propan-1-ol]
- inhibition at 10 µM (P2Y12 receptor [1]): 75%
- IC50 (P2Y12 receptor [1]): 3400 nM
- Ki (P2Y12 receptor [1]): 3210 nM

SMILES: CCc1cc2c(N3CCN(C(=O)Cc4ccccc4)CC3)nc(NC3CCCCC3)nc2s1 [Example 10, N-Cyclohexyl-6-ethyl-4-[4-(phenylacetyl)piperazin-1-yl]thieno[2,3-d]pyrimidin-2-amine]
- inhibition at 10 µM (P2Y12 receptor [1]): 37.3%
- IC50 (P2Y12 receptor [1]): > 10000 nM

SMILES: CCc1cc2c(N3CCN(C(=O)Cc4ccccc4)CC3)nc(NC3CCCC3)nc2s1 [Example 12, N-Cyclopentyl-6-ethyl-4-[4-(phenylacetyl)piperazin-1-yl]thieno[2,3-d]pyrimidin-2-amine]
- inhibition at 10 µM (P2Y12 receptor [1]): 43.6%
- IC50 (P2Y12 receptor [1]): > 10000 nM

SMILES: CCc1cc2c(N3CCN(C(=O)Cc4ccccc4)CC3)nc(NCc3ccc(F)cc3)nc2s1 [Example 13, 6-Ethyl-N-(4-fluorobenzyl)-4-[4-(phenylacetyl)piperazin-1-yl]thieno[2,3-d]pyrimidin-2-amine]
- inhibition at 10 µM (P2Y12 receptor [1]): 45.6%
- IC50 (P2Y12 receptor [1]): > 10000 nM

SMILES: CCOC(CCNc1nc(N2CCN(C(=O)c3ccc(-c4ccccc4)cc3)CC2)c2cc(CC)sc2n1)OCC [Example 22, 4-[4-(1,1′-Biphenyl-4-ylcarbonyl)piperazin-1-yl]-N-(3,3-diethoxypropyl)-6-ethylthieno[2,3-d]pyrimidin-2-amine]
- IC50 (P2Y12 receptor [2]): 138 nM
- Ki (P2Y12 receptor [2]): 81 nM
- inhibition at 10 µM (P2Y12 receptor [2]): 86%

SMILES: CCc1cc2c(N3CCN(C(=O)c4ccc(-c5ccccc5)cc4)CC3)nc(NCCC(=O)O)nc2s1 [Example 24, N-{4-[4-(1,1′-Biphenyl-4-ylcarbonyl)piperazin-1-yl]-6-ethylthieno[2,3-d]pyrimidin-2-yl}-beta-alanine]
- IC50 (P2Y12 receptor [2]): 13.2 nM
- Ki (P2Y12 receptor [2]): 8 nM
- inhibition at 10 µM (P2Y12 receptor [2]): 85%

SMILES: CCc1cc2c(N3CCN(C(=O)c4ccc(-c5ccccc5)cc4)CC3)nc(NCCC(=O)NC(CO)CO)nc2s1 [Example 25, N^3-{4-[4-(1,1′-Biphenyl-4-ylcarbonyl)piperazin-1-yl]-6-ethylthieno[2,3-d]pyrimidin-2-yl}-N˜1˜-[2-hydroxy-1-(hydroxymethyl)ethyl]-beta-alaninamide]
- IC50 (P2Y12 receptor [2]): 30 nM
- Ki (P2Y12 receptor [2]): 17 nM
- inhibition at 10 µM (P2Y12 receptor [2]): 94%

SMILES: CCc1cc2c(N3CCN(C(=O)c4ccc(-c5ccccc5)cc4)CC3)nc(NCCN(C)C)nc2s1 [Example 28, N′-{4-[4-(1,1′-biphenyl-4-ylcarbonyl)piperazin-1-yl]-6-ethylthieno[2,3-d]pyrimidin-2-yl}-N,N-dimethylethane-1,2-diamine]
- IC50 (P2Y12 receptor [2]): 44 nM and 47 nM
- Ki (P2Y12 receptor [2]): 27 nM and 29 nM
- [33P]-2MeS-ADP Binding to Recombinant Human P2Y12 Membranes (Assay 3) % Inhibition (P2Y12 receptor [2]): 98.44%
- inhibition at 10 µM (P2Y12 receptor [2]): 92.3%

SMILES: CCc1cc2c(N3CCN(C(=O)c4cccc(-c5ccccc5)c4)CC3)nc(NC(CO)CO)nc2s1 [Example 32, 2-({4-[4-(1,1′-biphenyl-3-ylcarbonyl)piperazin-1-yl]-6-ethylthieno[2,3-d]pyrimidin-2-yl}amino)propane-1,3-diol]
- IC50 (P2Y12 receptor [2]): 96 nM
- Ki (P2Y12 receptor [2]): 51 nM
- inhibition at 10 µM (P2Y12 receptor [2]): 96.5%

SMILES: CCc1cc2c(N3CCN(C(=O)CC(F)(F)F)CC3)nc(NC[C@@H](O)CO)nc2s1 [Example 36, (2R)-3-({6-Ethyl-4-[4-(3,3,3-trifluoropropanoyl)piperazin-1-yl]thieno[2,3-d]pyrimidin-2-yl}amino)propane-1,2-diol]
- IC50 (P2Y12 receptor [2]): 1050 nM and 1940 nM
- Ki (P2Y12 receptor [2]): 557 nM and 1010 nM
- [33P]-2MeS-ADP Binding to Recombinant Human P2Y12 Membranes (Assay 3) % Inhibition (P2Y12 receptor [2]): 70.7%
- inhibition at 10 µM (P2Y12 receptor [2]): 75.7%
